These results are taken from US20110171275A1, “GASTRORETENTIVE DRUG DELIVERY SYSTEM, PREPARATION METHOD AND USE THEREOF” (TEAM ACADEMY OF PHARMACEUTICAL SCIENCE, priority 2008, published 2011).

The data set can be described thus: Solubility in artificial gastric juice versus artificial intestinal fluid. In kind it is physicochemical. Conditions: artificial gastric juice vs artificial intestinal fluid. On the procedure: Rosiglitazone is a second-generation thiazolidinedione hypoglycemic agent. Gastric floating tablets of rosiglitazone reported in the literature are prepared by conventional preparation techniques for gastric floating tablets as follows: the hydrophilic gel material with high viscosity, i.e., hydroxypropyl methyl cellulose (HPMC) is selected, to which appropriate amount of foaming agent is added, and then the resulting mixture is compressed into tablets by direct powder compression. The resulting gastric floating tablets are claimed to have the same bioavailability with common tablets administered in a multiple doses [Hao Feng, Zhimin Wang, Dawei Chen, Studies on floating sustained release tablets of rosiglitazone maleate, Journal of China Pharmaceutical University, 2002, 33 (3): 196-199]. […] The gas-vesicle-type floating formulation of the present invention can ensure that the density of the formulation is relatively small (generally<0.6 g/cm^3), thereby it can float at the early stage of administration, since the shape of the capsule keeps unchange in the stomach. Thus, the entire volume of the formulation remains relatively stable, so that stable and sustainable floating capacity is achieved.

`CN(CCOc1ccc(CC2SC(=O)NC2=O)cc1)c1ccccn1` (stereo not shown) [rosiglitazone]: the “solubility in artificial gastric juice relative to artificial intestinal fluid” value is on record as “about a million times more”.
